Molecular target: T1, CHSY3-CHPF complex (Homo sapiens, UniProt Q70JA7)
T1 construct: secreted luminal part of both chains (TM helix removed), HEK Freestyle 293-F; N-terminal RPTP sigma signal, SUMO, His6 cut with 3C; C-terminal Avi (CHSY3), 3C site and twin-Strep (CHPF); heterodimer, expected 165 kDa; with Chondroitin sulfate synthase 2
T1 sequence (Q70JA7 157-882): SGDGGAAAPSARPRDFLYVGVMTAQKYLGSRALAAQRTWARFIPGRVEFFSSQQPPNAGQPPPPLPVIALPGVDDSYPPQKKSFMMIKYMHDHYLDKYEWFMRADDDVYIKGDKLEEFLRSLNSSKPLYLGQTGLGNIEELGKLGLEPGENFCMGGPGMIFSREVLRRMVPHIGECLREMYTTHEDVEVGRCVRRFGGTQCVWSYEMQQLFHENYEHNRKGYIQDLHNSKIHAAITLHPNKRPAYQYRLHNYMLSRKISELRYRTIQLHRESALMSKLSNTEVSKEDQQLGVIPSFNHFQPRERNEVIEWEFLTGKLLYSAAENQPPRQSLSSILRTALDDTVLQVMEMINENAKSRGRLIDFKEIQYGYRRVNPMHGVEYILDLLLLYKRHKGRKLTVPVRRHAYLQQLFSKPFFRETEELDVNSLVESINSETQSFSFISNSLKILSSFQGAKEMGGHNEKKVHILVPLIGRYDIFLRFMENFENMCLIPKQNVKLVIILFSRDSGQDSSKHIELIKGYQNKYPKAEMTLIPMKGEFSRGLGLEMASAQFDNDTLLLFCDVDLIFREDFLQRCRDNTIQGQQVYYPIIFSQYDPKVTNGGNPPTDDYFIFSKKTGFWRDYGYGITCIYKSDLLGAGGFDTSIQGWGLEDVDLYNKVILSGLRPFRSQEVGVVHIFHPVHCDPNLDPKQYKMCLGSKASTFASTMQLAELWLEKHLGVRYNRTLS
T1 sequence (Q8IZ52 81-775 partner): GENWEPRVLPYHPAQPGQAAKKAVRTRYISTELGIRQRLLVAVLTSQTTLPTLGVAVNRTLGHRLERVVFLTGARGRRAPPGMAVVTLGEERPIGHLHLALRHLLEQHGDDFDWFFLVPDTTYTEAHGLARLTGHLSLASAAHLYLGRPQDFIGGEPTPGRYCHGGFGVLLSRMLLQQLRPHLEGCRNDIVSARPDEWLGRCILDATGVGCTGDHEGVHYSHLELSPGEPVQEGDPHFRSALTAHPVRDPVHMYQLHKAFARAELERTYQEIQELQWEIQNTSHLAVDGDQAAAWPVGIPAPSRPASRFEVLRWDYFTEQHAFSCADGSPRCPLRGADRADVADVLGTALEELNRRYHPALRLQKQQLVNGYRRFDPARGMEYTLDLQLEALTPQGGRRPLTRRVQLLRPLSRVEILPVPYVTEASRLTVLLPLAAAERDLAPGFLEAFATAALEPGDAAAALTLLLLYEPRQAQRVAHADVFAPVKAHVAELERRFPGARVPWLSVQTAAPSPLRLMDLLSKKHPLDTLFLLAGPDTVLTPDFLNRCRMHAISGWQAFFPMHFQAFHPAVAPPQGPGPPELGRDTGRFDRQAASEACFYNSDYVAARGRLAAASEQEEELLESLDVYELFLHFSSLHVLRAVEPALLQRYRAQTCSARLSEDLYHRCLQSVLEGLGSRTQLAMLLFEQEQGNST
Assay: cryo-EM structure, […] A
Type: binding
Details: 10 mM UDP, Mn2+, pH 6.5; bound in N-terminal GT31 (GlcA-T) active site of CHSY3

O=c1ccn([C@@H]2O[C@H](COP(=O)(O)OP(=O)(O)O)[C@@H](O)[C@H]2O)c(=O)[nH]1 [UDP]
cryo-EM structure, 3.0 A: We identified one UDP molecule bound in the CHSY3 GlcA-T active site.

Source: publication PMC12748766, “Structural basis for human chondroitin sulfate chain polymerization” (Nature Communications, 2025)
